Measured values from patent publication US11440880B2, “Thalidomide analogs and methods of use” (The USA, as represented by the Secretary, Department of …, priority 2015, dated 2022).

Key:
[1] = system: fli1:EGFP zebrafish embryos (intersegmental vessel growth); experiment: fli1:EGFP zebrafish embryo angiogenesis assay; format: in vivo; set-up: fli1:EGFP angiogenesis n (survived/tested): concentration or dose not given beside the values; conditions: for minimal effective concentration: Danio rerio, lowest concentration producing an effect, compounds not producing an effect shown at the highest evaluated concentration; for fli1:EGFP angiogenesis n (survived/tested): embryos alive after 24 hours of exposure
Procedure, shortened: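 fli1:EGFP embryos grown 24 hpf, dechorionated and exposed to compound or vehicle over a range of concentrations for up to 24 h, with CPS49 as positive control. Imaged at 48 hpf for intersegmental vessel formation and growth; survival after 24 h exposure recorded, and values reflect the lowest concentration producing an effect.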

TNF-α protein = TNF-α protein level (ELISA) in LPS-challenged RAW 264.7 cells; format: cell-based, mouse; set-up: key: NS=not significant; a “+” sign=anti-inflammatory or increased cell numbers; a “−” sign=cell toxicity or pro-inflammatory; conditions: LPS 30 or 60 ng/mL, 24 h
Procedure, shortened: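 RAW 264.7 cells pretreated 1 h with compound in DMSO vehicle, then challenged with LPS (30 or 60 ng/mL) for 24 h at 37° C. Conditioned-media nitrite by Griess (520 nm, sodium nitrite standard curve, 1.5 μM cutoff) in μM; mouse TNF-α by ELISA as pg/ml or % change from control.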

O=C1NC(=S)CCC1N1C(=O)c2cccc([N+](=O)[O-])c2C1=O (stereo not shown) [Compound 7, 2-(2-Oxo-6-thioxo-3-piperidinyl)-4-nitro-1H-isoindole-1,3(2H)-dione]
minimal effective concentration [1]: 10 µg/mL | fli1:EGFP angiogenesis n (survived/tested) [1]: 28/33 | TNF-α (TNF-α protein; 1 μM): NS | TNF-α (TNF-α protein; 10 μM): NS | TNF-α (TNF-α protein; 30 μM): NS | TNF-α (TNF-α protein; 60 μM): NS | TNF-α (TNF-α protein; 100 μM): +

Nc1cccc2c1CN(C13CC4CC(CC(C4)C1)C3)C2=O [Compound 77, 2,3-Dihydro-4-amino-2-(tricyclo[3.3.1.1^3,7]dec-1-yl)-1H-isoindol-1-one]
minimal effective concentration [1]: 10 µg/mL | fli1:EGFP angiogenesis n (survived/tested) [1]: 43/62 | TNF-α (TNF-α protein; 1 μM): NS | TNF-α (TNF-α protein; 10 μM): NS | TNF-α (TNF-α protein; 30 μM): NS

O=C1c2ccccc2CN1C12CC3CC(CC(O)(C3)C1)C2 [Compound 86, 2,3-Dihydro-2-(tricyclo[3.3.1.1^3,7]dec-1-hydroxy-3-yl)-1H-isoindol-1-one]
minimal effective concentration [1]: 200 µg/mL | fli1:EGFP angiogenesis n (survived/tested) [1]: 4/12 | TNF-α (TNF-α protein; 1 μM): NS | TNF-α (TNF-α protein; 10 μM): + | TNF-α (TNF-α protein; 30 μM): +

CC(N1Cc2c(N)cccc2C1=O)C12CC3CC(CC(C3)C1)C2 (stereo not shown) [Compound 81]
minimal effective concentration [1]: 50 µg/mL | fli1:EGFP angiogenesis n (survived/tested) [1]: 7/8 | TNF-α (TNF-α protein; 1 μM): NS | TNF-α (TNF-α protein; 10 μM): NS | TNF-α (TNF-α protein; 30 μM): +

O=C1CCC(N2C(=O)c3cccc([N+](=O)[O-])c3C2=O)C(=O)N1 (stereo not shown) [Compound 5]
minimal effective concentration [1]: 7.5 µg/mL | fli1:EGFP angiogenesis n (survived/tested) [1]: 8/14 | TNF-α (TNF-α protein; 1 μM): NS | TNF-α (TNF-α protein; 10 μM): NS | TNF-α (TNF-α protein; 30 μM): NS | TNF-α (TNF-α protein; 60 μM): NS | TNF-α (TNF-α protein; 100 μM): NS

Nc1cccc2c1CN(C1CCC(=O)NC1=O)C2=S (stereo not shown) [Compound 29]
minimal effective concentration [1]: 10 µg/mL | fli1:EGFP angiogenesis n (survived/tested) [1]: 6/17 | TNF-α (TNF-α protein; 3 μM): NS | TNF-α (TNF-α protein; 10 μM): NS | TNF-α (TNF-α protein; 30 μM): NS
